Data taken from patent US4876262A, “Piperidine derivative and pharmaceutical composition containing the same” (Eisai Co., Ltd., priority 1986, dated 1989).
Where a name gives a salt, the structure may show the parent alone. Read-outs that look alike come from different tables or passages of the source.

Legend:
[1] = test system: isolated myocardium of guinea-pigs (right ventricular papillary muscles); experiment: Effects on the action potential duration in the isolated myocardium of guinea-pigs; design: species or system guinea-pig (male, Hartley strain); conditions: Cavia porcellus, 10 min; for activation at 10 µM / activation at 1 µM: read-out: APD90 prolongation; for inhibition at 10 µM / inhibition at 1 µM: read-out: Vmax inhibition
Method: Right ventricular papillary muscles were isolated from male guinea-pigs of Hartley strain weighing 300 to 400 g and fixed at the bottom of an acrylic bath with pins. […] The muscles were stimulated at 1 Hz with rectangular pulses of 1 msec duration and supramaximal voltage. Action potentials were recorded using conventional glass microelectrodes filled with 3M KCl. The duration of the action potential and the maximum velocity of the upstroke of the action potential (Vmax) were determined. Each of the test compounds was included in Tyrode solution at 10^-6 or 10^-5 M and perfused.
Sotalol, a beta-adrenoceptor antagonist was employed as the reference drug because this compound is known to prolong the duration of the myocardial action potential.

[2] = test system: anesthetized dogs (QTc-interval of ECG); experiment: Effects of QTc-interval of ECG in anesthetized dogs; type: in vivo, Mongrel dogs; conditions: forearm vein; for change in vivo at 1 mg/kg: 1 mg/kg (1.0 mg/kg)
in vivo = conditions: mouse, iv
Method: Male ddy mice weighing 20 to 30 g were used for the acute toxicity test. LD50 values were calculated by the up-and-down method. […] The dose to be administered was determined on the basis of the volume of the stock solution. The solutions were injected into a tail vein by means of a 1-ml tuberculin syringe. The judgement of survival or death was made 30 min after each injection.

[3] = 10^-5 M, another 10 min after 10^-6 M, 1 Hz, 37° C.
[4] = 10^-6 M, first 10 min, 1 Hz, 37° C.
[5] = Canis lupus familiaris, iv, 0.1 mg/kg, enflurane anesthesia, read-out: prolongation of QTc-interval
[6] = Canis lupus familiaris, iv, enflurane anesthesia, read-out: prolongation of QTc-interval

Row | SMILES | activation at 10 µM [1, 3] | inhibition at 10 µM [1, 3] | activation at 1 µM [1, 4] | inhibition at 1 µM [1, 4] | QTc-interval after compound ([2]; 0.1 mg/kg, from 435 msec before) | change in vivo at 0.1 mg/kg [2, 5] | LD50 at 0.5 h (in vivo) | change in vivo at 0.3 mg/kg [2, 6] | change in vivo at 1 mg/kg [2, 6] | change in vivo at 0.03 mg/kg ([2]; Canis lupus familiaris, iv, 0.03 mg/kg, enflurane anesthesia, read-out: prolongation of QTc-interval) | activation at 1 µM [1] | activation at 10 µM [1] | inhibition at 1 µM [1] | inhibition at 10 µM [1]
1 | CS(=O)(=O)Nc1ccc(C(=O)C2CCN(Cc3ccccc3)CC2)cc1 [Compound A, 1-benzyl-4-(4-methylsulfonylaminobenzoyl)piperidine hydrochloride] | 7% | 0% | 0% | 0% | – | – | – | – | – | – | – | – | – | –
2 | CS(=O)(=O)Nc1ccc(C(=O)C2CCN(CCc3ccccc3)CC2)cc1.Cl [Compound B, 4-(4-methylsulfonylaminobenzoyl)-1-(2-phenylethyl)piperidine hydrochloride] | 34% | 19% | 26% | 0% | 665 ms | 51% | 100 mg/kg | – | – | – | – | – | – | –
3 | CS(=O)(=O)Nc1ccc(C(=O)C2CCN(CCc3ccc(Cl)cc3)CC2)cc1 [Compound C, 1-[2-(4-chlorophenyl)ethyl]-4-(4-methylsulfonylaminobenzoyl)piperidine hydrochloride] | 15% | 0% | 7% | 0% | – | – | – | – | – | – | – | – | – | –
4 | CS(=O)(=O)Nc1ccc(C(=O)C2CCN(C(=O)c3ccc(NS(C)(=O)=O)cc3)CC2)cc1 [Compound D, 1,4-di(4-methylsulfonylaminobenzoyl)piperidine hydrochloride] | 10% | 0% | 3% | 0% | – | – | – | – | – | – | – | – | – | –
5 | COc1ccc(CCN2CCC(C(=O)c3ccc(NS(C)(=O)=O)cc3)CC2)cc1OC [Compound E, 1-[2-(3,4-dimethoxyphenyl)ethyl]-4-(4-methylsulfonylaminobenzoyl)piperidine hydrochloride] | 14% | 0% | 12% | 0% | – | – | – | – | – | – | – | – | – | –
6 | CS(=O)(=O)Nc1ccc(C(=O)C2CCN(CCc3cccs3)CC2)cc1.CS(=O)(=O)O [Compound F, 4-(4-methylsulfonylaminobenzoyl)-1-[2-(2-thienyl)ethyl]piperidine methylsulfonate] | 11% | 0% | 8% | 0% | – | – | 112 mg/kg | – | – | – | – | – | – | –
7 | CS(=O)(=O)Nc1ccc(C(=O)C2CCN(Cc3ccncc3)CC2)cc1.Cl.Cl [Compound G, 4-(4-methylsulfonylaminobenzoyl)-1-(4-pyridyl)methylpiperidine dihydrochloride] | 33% | 0% | 18% | 0% | – | 17% | 108 mg/kg | 27% | 35% | – | – | – | – | –
8 | CS(=O)(=O)Nc1ccc(C(=O)C2CCN(CCc3ccccn3)CC2)cc1 [Compound H, 4-(4-methylsulfonylaminobenzoyl)-1-[2-(2-pyridyl)ethyl]piperidine dihydrochloride] | 5% | 0% | 2% | 0% | – | – | – | – | – | – | – | – | – | –
9 | CS(=O)(=O)Nc1ccc(C(=O)C2CCN(CCc3cccnc3)CC2)cc1 [Compound I, 4-(4-methylsulfonylaminobenzoyl)-1-[2-(3-pyridyl)ethyl]piperidine dihydrochloride] | 17% | 0% | 10% | 0% | – | – | – | – | – | – | – | – | – | –
10 | CS(=O)(=O)Nc1ccc(C(=O)C2CCN(CCc3ccncc3)CC2)cc1.Cl.Cl [Compound J, 4-(4-methylsulfonylaminobenzoyl)-1-[2-(4-pyridyl)ethyl]piperidine dihydrochloride] | 10% | 0% | 4% | 0% | – | 21% | 195 mg/kg | 42% | – | – | – | – | – | –
11 | CS(=O)(=O)Nc1ccc(C(=O)C2CCN(C(=O)c3cccnc3)CC2)cc1 [Compound K, 4-(4-methylsulfonylaminobenzoyl)-1-nicotinoylpiperidine] | 24% | 14% | 9% | 0% | – | – | – | – | – | – | – | – | – | –
12 | CS(=O)(=O)Nc1ccc(C(=O)C2CCN(Cc3ccc4ccccc4n3)CC2)cc1.Cl.Cl [Compound L, 4-(4-methylsulfonylaminobenzoyl)-1-(2-quinolylmethyl)piperidine dihydrochloride] | 26% | 2% | 18% | 0% | – | 31% | 112 mg/kg | 56% | – | – | – | – | – | –
13 | CS(=O)(=O)Nc1ccc(C(=O)C2CCN(Cc3cnc4ccccc4c3)CC2)cc1.Cl.Cl [Compound M, 4-(4-methylsulfonylaminobenzoyl)-1-(3-quinolylmethyl)piperidine dihydrochloride] | 5% | 0% | 3% | 0% | – | 7% | 112 mg/kg | 13% | 21% | – | – | – | – | –
14 | CS(=O)(=O)Nc1ccc(C(=O)C2CCN(CC(=O)c3cnc4ccccn34)CC2)cc1.Cl.Cl [Compound N, 1-[2-(3-imidazo[1,2-a]pyridyl)-2-oxo-ethyl]-4-(4-methylsulfonylaminobenzoyl)piperidine dihydrochloride] | 8% | 0% | 8% | 0% | – | – | 224 mg/kg | – | – | – | – | – | – | –
15 | CS(=O)(=O)Nc1ccc(C(=O)C2CCN(Cc3cn4ccccc4n3)CC2)cc1 [Compound O, 1-(1-imidazo[1,2-a]pyridylmethyl)-4-(4-methylsulfonylaminobenzoyl)piperidine dihydrochloride] | 12% | 5% | 6% | 0% | – | – | 302 mg/kg | – | – | – | – | – | – | –
16 | CCN1CCC(C(=O)c2ccc(NS(C)(=O)=O)cc2)CC1 [Compound P, 1-ethyl-4-(4-methylsulfonylaminobenzoyl)piperidine hydrochloride] | 23% | 2% | 7% | 0% | – | 7% | – | 14% | – | – | – | – | – | –
17 | CS(=O)(=O)Nc1ccc(C(=O)C2CCN(Cc3ccc4nccn4c3)CC2)cc1 [Compound Q, 1-(6-imidazo[1,2-a]pyridylmethyl)-4-(4-methylsulfonylaminobenzoyl)piperidine dihydrochloride] | 23% | 0% | 4% | 0% | – | – | – | – | – | – | – | – | – | –
18 | CS(=O)(=O)Nc1ccc(C(=O)C2CCN(CCCc3ccncc3)CC2)cc1.Cl.Cl [Compound R, 4-(4-methylsulfonylaminobenzoyl)-1-(3-(4-pyridyl)propyl)piperidine dihydrochloride] | 27% | 0% | 18% | 0% | – | 21% | 138 mg/kg | – | – | 13% | – | – | – | –
19 | Cc1cccc(CCN2CCC(C(=O)c3ccc(NS(C)(=O)=O)cc3)CC2)n1 [Compound S, 1-(2-(6-methyl-2-pyridyl)ethyl)-4-(4-methylsulfonylaminobenzoyl)piperidinedihydrochloride] | – | – | – | – | – | – | – | – | – | – | 20% | 30% | 0% | 0%
20 | CC(C)NCC(O)c1ccc(NS(C)(=O)=O)cc1 (centres unmarked) [Sotalol, reference compound] | 7% | 0% | 0% | 0% | – | – | 113 mg/kg | – | 12% | – | – | – | – | –
